PMC3756062, “Identification of Putative Steroid Receptor Antagonists in Bottled Water: Combining Bioassays and High-Resolution Mass Spectrometry” (PLoS ONE, 2013)

Experiments:
human androgen receptor = molecular target: T1, human androgen receptor (Homo sapiens, UniProt P10275); experiment: Yeast Antiandrogen Screen (YAAS), reporter gene assay; format: cell-based; settings: coincubated with 2.5 nM testosterone; for IC50: authentic standards 300 nM to 1 mM in ethanol, 24 h, three experiments, four-parameter logistic function, read-out: IC50, antiandrogenic in the YAAS
T1 construct: expressed in transfected cells
T1 sequence (P10275 1-920): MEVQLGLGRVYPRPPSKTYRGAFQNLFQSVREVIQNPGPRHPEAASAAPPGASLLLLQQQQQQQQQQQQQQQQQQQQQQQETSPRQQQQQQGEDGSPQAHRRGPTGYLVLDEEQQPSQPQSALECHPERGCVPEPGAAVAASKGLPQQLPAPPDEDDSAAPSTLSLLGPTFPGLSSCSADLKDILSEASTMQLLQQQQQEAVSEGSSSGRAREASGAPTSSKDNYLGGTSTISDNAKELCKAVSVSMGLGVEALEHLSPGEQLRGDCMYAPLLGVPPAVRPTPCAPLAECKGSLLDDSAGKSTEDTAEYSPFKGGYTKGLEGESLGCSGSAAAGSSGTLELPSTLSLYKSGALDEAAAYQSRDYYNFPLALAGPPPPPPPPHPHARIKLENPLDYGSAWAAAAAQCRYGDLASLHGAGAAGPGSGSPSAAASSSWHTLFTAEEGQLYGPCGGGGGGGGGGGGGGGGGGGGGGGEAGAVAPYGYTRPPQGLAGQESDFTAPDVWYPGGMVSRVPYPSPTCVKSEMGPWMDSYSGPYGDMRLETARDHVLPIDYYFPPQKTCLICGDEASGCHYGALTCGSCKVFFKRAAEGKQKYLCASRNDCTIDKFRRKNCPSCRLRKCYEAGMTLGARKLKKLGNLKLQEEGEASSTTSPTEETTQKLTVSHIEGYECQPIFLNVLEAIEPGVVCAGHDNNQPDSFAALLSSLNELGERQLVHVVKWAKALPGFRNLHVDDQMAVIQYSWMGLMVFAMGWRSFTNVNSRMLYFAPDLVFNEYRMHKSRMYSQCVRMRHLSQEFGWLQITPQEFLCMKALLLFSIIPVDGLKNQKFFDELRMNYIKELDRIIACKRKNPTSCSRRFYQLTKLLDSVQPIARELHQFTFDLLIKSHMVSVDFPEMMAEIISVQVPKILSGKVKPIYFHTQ
Protocol: (§1) The antiestrogenic and antiandrogenic activity of bottled water extracts was evaluated in reporter gene assays for human estrogen receptor alpha (Yeast Antiestrogen Screen, YAES) and human androgen receptor (Yeast Antiandrogen Screen, YAAS). To detect antagonists, Yeast Estrogen Screen and Yeast Androgen Screen were modified to analyze samples in the presence of the endogenous ligand of each receptor (17β-estradiol, testosterone). Receptor antagonists present in the sample cause a displacement of the endogenous ligand resulting in a decreased reporter gene signal.
(§2) The general assay procedures have been described previously, [24]. Briefly, SPE extracts were diluted 480 fold in assay medium and coincubated with 30 pM 17β-estradiol (YAES) or 2.5 nM testosterone (YAAS) dissolved in ethanol. Negative controls, solvent controls (ethanol and DMSO) with and without endogenous ligand, and positive controls (ligand coincubated with a known receptor antagonist, YAES: 80 µM hydroxytamoxifen, YAAS: 50 µM flutamide) were included in each experiment. The maximum solvent concentration was 0.4% v/v in all cases. Samples were analyzed in eight replicates, controls in 8–48 replicates. After 24 hours incubation at 30°C turbidity was read to assess cytotoxicity and β-galactosidase activity was determined. Samples from three extractions were tested in three independent YAES and YAAS experiments each.
(§3) Inhibition data is reported as means of three SPE extracts per sample analyzed in three experiments (with eight replicates each) resulting in a sample size of 63–72. The reported antagonistic activity corresponds to a sample volume equivalent to 3.75 mL bottled water.
Chemicals with best matching fragmentation and plausible structure (DEHM, DOM, DEHF, DOF) were purchased as authentic standards. Their antiestrogenic and antiandrogenic activity was evaluated in the bioassays (three experiments) as described above in concentrations ranging from 300 nM to 1 mM (in ethanol).

[1] = molecular target: T2, human estrogen receptor alpha (Homo sapiens, UniProt P03372); experiment: Yeast Antiestrogen Screen (YAES), reporter gene assay; format: cell-based; settings: coincubated with 30 pM 17β-estradiol; for IC50: authentic standards 300 nM to 1 mM in ethanol, 24 h, three experiments, four-parameter logistic function, read-out: IC50, antiestrogenic in the YAES
T2 construct: expressed in transfected cells
T2 sequence (P03372 1-595): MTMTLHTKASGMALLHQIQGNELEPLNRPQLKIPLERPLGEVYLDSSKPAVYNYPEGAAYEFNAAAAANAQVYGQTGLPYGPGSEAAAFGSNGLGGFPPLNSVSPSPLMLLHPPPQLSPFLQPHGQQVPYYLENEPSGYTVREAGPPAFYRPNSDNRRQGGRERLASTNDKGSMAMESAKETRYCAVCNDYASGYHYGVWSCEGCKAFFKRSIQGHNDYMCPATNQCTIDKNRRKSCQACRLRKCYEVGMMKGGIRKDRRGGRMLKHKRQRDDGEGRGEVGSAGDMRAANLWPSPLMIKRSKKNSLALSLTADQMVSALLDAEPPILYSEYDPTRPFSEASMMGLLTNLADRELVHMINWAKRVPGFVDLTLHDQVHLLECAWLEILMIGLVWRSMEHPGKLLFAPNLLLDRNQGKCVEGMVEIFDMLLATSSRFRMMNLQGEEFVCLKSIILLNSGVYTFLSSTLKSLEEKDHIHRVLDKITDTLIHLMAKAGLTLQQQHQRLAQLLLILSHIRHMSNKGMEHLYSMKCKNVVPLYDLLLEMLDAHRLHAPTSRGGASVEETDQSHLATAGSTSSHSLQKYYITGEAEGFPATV
Protocol: as §1, §2, §3
Their antiestrogenic and antiandrogenic activity was evaluated in the bioassays (three experiments) as described above in concentrations ranging from 300 nM to 1 mM (in ethanol).

Row | SMILES | IC50 (human androgen receptor) [µM] | antiandrogenic activity in the YAAS (result in words) (human androgen receptor) | IC50 [1] [µM] | antiestrogenic activity in the YAES (result in words) [1]
1 | CCCCCCCCOC(=O)/C=C/C(=O)OCCCCCCCC [DOF, 2-Butenedioic acid (2E)-, 1,4-dioctyl ester] | 15.8 | partially | 35.4 | partially
2 | CCCCC(CC)COC(=O)/C=C/C(=O)OCC(CC)CCCC (stereo not shown) [DEHF, 2-Butenedioic acid (2E)-, 1,4-bis(2-ethylhexyl) ester] |  | inactive |  | 
3 | CCCCC(CC)COC(=O)/C=C\C(=O)OCC(CC)CCCC (stereo not shown) [DEHM, 2-Butenedioic acid (2Z)-, 1,4-bis(2-ethylhexyl) ester] |  | inactive |  | 
4 | CCCCCCCCOC(=O)/C=C\C(=O)OCCCCCCCC [DOM, 2-Butenedioic acid (2Z)-, 1,4-dioctyl ester] | 245 | at high concentrations | 107 | at high concentrations
